Laboratory results from patent US10512627B2, “Anti-tumor compound and the medical use thereof” (Tianjin Medical University Cancer Institute and Hospital, priority 2014, dated 2019).
Read-outs that look alike come from different tables or passages of the source. Each block holds one compound with its values, some of them ahead of it.

Assays:
[1] = system: MDA-MB-231 cells; experiment: MTT assay, synergistic effect with Paclitaxel (Example 12); type: cell-based, human; conditions: Homo sapiens
Protocol: Synergistic effects of (S)2-(4′-methyl-3′-nitrobenzoylamino)-3-phenylpropionic acid and Paclitaxel was tested by MTT assay.
1) The MDA-MB-231 cells in logarithmic growth phase were seeded in the 96-well plate at a density of 4×10^3/0.2 ml. After culturing for 12 h, 10 μl Paclitaxel solution was added, with the final concentration of 0, 0.001, 0.01, 0.1, 1, 10, 50, 100, 200 μM, then 10 μL (S)2-(4′-methyl-3′-nitrobenzoylamino)-3-phenylpropionic acid PBS solution was add to half of the wells for each group with the final concentration of 20 μM, followed by continuous culturing for 24 or 48 h.
2) 5 mg/mL MTT solution was prepared with sterilized PBS, filtered with 0.22 μm film, and diluted with medium to 1 mg/mL. After discarding the medium in the 96-well plate, 100 μL 1 mg/mL MTT working solution was added, followed by continuous culturing for 5 h.
3) MTT working solution was discarded, and 150 μL DMSO was added per well (note: to away from light). The plate was shaken on a horizontal shaker at 170 rpm for 10 min, and then the absorbance at 490 nm was detected by microplate reader.

[2] = system: human breast cancer cells MDA-MB-231; experiment: Scratching assay, migration of MDA-MB-231 (Example 14); type: cell-based; conditions: 20 μmol/L, 0-24 h
Protocol: The inhibiting ability of 2-(4′-methyl-3′-nitrobenzoylamino)-3-indolylpropionic acid (TCI05), 2-(4′-methyl-3′-nitrobenzoylamino)-3-(4-hydroxy-phenyl) propionic acid (TCI06), 2-(4′-methyl-3′-nitrobenzenemethoxycarbonyl)-3-phenylpropionic acid (TCI07), 2-(4′-methyl-3′-nitrobenzenemethoxycarbonyl)-3-indolylpropionic acid (TCI08) for the migration of human breast cancer cells MDA-MB-231 was tested by scratching assay.
The MDA-MB-231 cells in logarithmic growth phase were seeded in the 6-well plate at a density of 1×10^6/3 ml, and 12 h later, TCI05, TCI06, TCI07, TCI08 (formulation was the same as TCI04) was added, 150 μl per well, with the final concentration of 20 μmol/L. The negative control was 150 μL sterilized water with 2% DMSO. 48 h later, 200 ul tips were used to scratch, and after washing 4 times with PBS, 3 ml medium without fetal bovine serum was added per well. Under the inverted microscope, the distance of cell migration was recorded every 3 h, and photos were taken at 0 h and 24 h.

[3] = system: human breast cancer cell MDA-MB-231; experiment: Scratching assay, migration of MDA-MB-231 (Example 16); type: cell-based; conditions: for average (scratch assay distance): control 13.1667
Protocol: The inhibiting ability of 4-hydroxy-3-nitrobenzoic acid and 4-amino-3nitrobenzoic acid for the migration of human breast cancer cell MDA-MB-231 was tested by scratching assay.
Three lines were marked on the underside of 6-well plate, MDA-MB-231 breast cancer cells in logarithmic growth phase were digested with 0.7 mL 0.08% trypsin for 1 min, and the digestion was stopped with complete culture medium. After centrifugation at 1000 r/min for 3 min, the supernatant was discarded, then 3 mL complete culture medium was added. After pipetting to make suspension of single cell, the cells in the cell suspension was counted, and the concentration of the cells was adjusted to a density of 5×10^5 cells/well to plate the 6 wells plate, and 6 groups of drugs containing complete culture medium (DMEM+10% FBS+1% Penicillin-Streptomycin+drug) were added. After culturing in a incubator for 12 h until the cells were attached, the culture medium was removed, 20 μL tips were used to scratch vertically to the three transverse lines on the underside to obtain 6 distances for counting, and after washing with phosphate buffered saline (PBS) three times, 6 groups of drugs containing culture medium without FBS (DMEM+drug) were added respectively, and the width of the scratches were observed and recorded at 0 h, 3 h, 6 h, 9 h, 12 h and 24 h under inverted microscope, with 6 distances being recorded per well, wherein, photos were taken with inverted microscope at 0 h and 24 h for recording.

[4] = system: 4T1-luciferase cells; experiment: In situ model of breast cancer in nude mouse, lung metastasis by in vivo imaging (Example 7); design: species or system nude mice; conditions: 50 mg/kg tail vein, twice a day, 21 days; P<0.01
Protocol: 4) An in situ breast cancer model is constructed by in situ inoculating nude mice with 4T1 cells which are stably transfected with Luciferase, and the number of metastatic tumors on the lung is detected by in vivo imaging system. Such a model mimics the occurrence and metastasis of breast cancer.
The ability of (S)2-(4′-methyl-3′-nitrobenzoylamino)-3-phenylpropionic acid for inhibiting tumor metastasis in vivo was tested by in situ model of breast cancer in nude mouse.
1) Mice grouping: Nude female mice of SPF grade, 5 weeks old, 18˜22 g, 8 mice for each group;
2) The mother liquid of (S)2-(4′-methyl-3′-nitrobenzoylamino)-3-phenylpropionic acid (TCI04) for the dosage form administrated by intravenous injection was diluted to 2 mg/mL, 0.1 mg/mL by adding sterilized water. The dosage for administration in mice was as follows, high dosage of 20 mg/kg; low dosage of 1 mg/kg. […]
3) 4T1-luciferase cells in logarithmic growth phase were digested with 0.05% typsine for 1 min, after centrifugation at 1000 rpm for 5 min, the supernatant was discarded and the cells were resuspended and counted. […]
5) After the completion of the administration, the mice were detected by in vivo imaging system for the condition of tumor metastasis and immediately sacrificed; the lungs alone were detected by the in vivo imaging system for the light intensity to determine the number of tumor metastasis.

IC50 ([1]; MDA-MB-231, 24 h, Paclitaxel + 20 μM (S)2-(4′-methyl-3′-nitrobenzoylamino)-3-phenylpropionic acid, read-out: IC50 after 24 h): 0.395 µM
IC50 ([1]; MDA-MB-231, 24 h, Paclitaxel alone, read-out: IC50 after 24 h): 3.97 µM
IC50 ([1]; MDA-MB-231, 48 h, Paclitaxel + 20 μM (S)2-(4′-methyl-3′-nitrobenzoylamino)-3-phenylpropionic acid, read-out: IC50 after 48 h): 0.046 µM
IC50 ([1]; MDA-MB-231, 48 h, Paclitaxel alone, read-out: IC50 after 48 h): 0.512 µM
Compound: CC(=O)O[C@H]1C(=O)[C@@]2(C)[C@H]([C@H](OC(=O)c3ccccc3)[C@]3(O)C[C@H](OC(=O)[C@H](O)[C@@H](NC(=O)c4ccccc4)c4ccccc4)C(C)=C1C3(C)C)[C@]1(OC(C)=O)CO[C@@H]1C[C@@H]2O [Paclitaxel]

Compound: Cc1ccc(COC(=O)C(Cc2ccccc2)C(=O)O)cc1[N+](=O)[O-] (stereo not shown) [TCI07, 2-(4′-methyl-3′-nitrobenzenemethoxycarbonyl)-3-phenylpropionic acid]
inhibition of migration ability (coalescence speed of cell scratch vs negative control) [2]: obviously inhibit

Compound: O=C(O)c1ccc(O)c([N+](=O)[O-])c1 [4-hydroxy-3-nitrobenzoic acid]
inhibition of migration ability (coalescence speed of cell scratch vs negative control) [3]: obviously inhibit
average (scratch assay distance) [3]: 8 10^−2 mm

Compound: Cc1ccc(COC(=O)C(Cc2c[nH]c3ccccc23)C(=O)O)cc1[N+](=O)[O-] (stereo not shown) [TCI08, 2-(4′-methyl-3′-nitrobenzenemethoxycarbonyl)-3-indolylpropionic acid]
inhibition of migration ability (coalescence speed of cell scratch vs negative control) [2]: obviously inhibit

Compound: Cc1ccc(C(=O)NC(Cc2ccc(O)cc2)C(=O)O)cc1[N+](=O)[O-] (stereo not shown) [TCI06, 2-(4′-methyl-3′-nitrobenzoylamino)-3-(4-hydroxy-phenyl)propionic acid]
inhibition of migration ability (coalescence speed of cell scratch vs negative control) [2]: obviously inhibit

Compound: 2-(4′-methyl-3′-nitrobenzoylamino)-3-indolyl propionic acid [TCI05]
inhibition of migration ability (coalescence speed of cell scratch vs negative control) [2]: obviously inhibit

Compound: Cc1ccc(C(=O)O)cc1[N+](=O)[O-] [TCI01, 4-methyl-3-nitrobenzoic acid, reference compound]
light intensity of the whole lung vs negative control [4]: significantly weaker than the negative control

Compound: Nc1ccc(C(=O)O)cc1[N+](=O)[O-] [4-amino-3-nitrobenzoic acid]
inhibition of migration ability (coalescence speed of cell scratch vs negative control) [3]: obviously inhibit
average (scratch assay distance) [3]: 8.1667 10^−2 mm
